Laboratory results: PMC11931604 (Drug Development Research, 2025)
Entries after “also recorded” stand apart in the source; their conditions may differ. Where two headings read alike, the source gives them in different places.

What was measured:
IBV (B/Ned/537/05) = assay: CPE reduction assay in MDCK cells, influenza B virus; assay type: cell-based
A/H3N2 (A/HK/7/87) = assay: microbe, parasite or virus in culture; assay type: cell-based, influenza A virus; conditions: for EC50: Influenza A virus, H3N2, MDCK; for anti-A/H3N2 activity (in words): MDCK cells
in vitro = conditions: dog
[1] = test system: A/H1N1 (strain A/Ned/378/05); assay: CPE reduction assay in MDCK cells, influenza A/H1N1; assay type: cell-based; conditions: Influenza A virus
[2] = read-out: Antiviral EC50 IBV CPE
[3] = read-out: Antiviral EC50 IBV MTS
[4] = read-out: Antiviral EC50 A/H3N2 CPE
[5] = read-out: Antiviral EC50 A/H3N2 MTS
[6] = read-out: Antiviral EC50 A/H1N1 CPE
[7] = read-out: Antiviral EC50 A/H1N1 MTS

Row | Compound | EC50 (IBV (B/Ned/537/05); [2]) [µM] | EC50 (IBV (B/Ned/537/05); [3]) [µM] | EC50 (A/H3N2 (A/HK/7/87); [4]) [µM] | EC50 (A/H3N2 (A/HK/7/87); [5]) [µM] | CC50 (in vitro) [µM] | EC50 [1, 6] [µM] | EC50 [1, 7] [µM] | anti-A/H3N2 activity (in words) (A/H3N2 (A/HK/7/87))
1 | CC(C)(C)c1ccc(C(=O)NN2C(=O)CSC23CCC(C(C)(C)C)CC3)cc1 (stereo not drawn) [Compound 1f, 4‐(tert‐Butyl)‐N‐(8‐(tert‐butyl)‐3‐oxo‐1‐thia‐4‐azaspiro[4.5]decan‐4‐yl)benzamide] | > 100 | > 100 | > 100 | > 100 | > 100 | > 100 | > 100 | 
2 | CC1SC2(CCC(C(C)(C)C)CC2)N(NC(=O)c2ccc(C(C)(C)C)cc2)C1=O (stereo not drawn) [Compound 2f, 4‐(tert‐Butyl)‐N‐(8‐(tert‐butyl)‐2‐methyl‐3‐oxo‐1‐thia‐4‐azaspiro[4.5]decan‐4‐yl)benzamide] | > 100 | > 100 | > 100 | > 100 | > 100 | > 100 | > 100 | 
3 | CCC(CC)O[C@@H]1C=C(C(=O)O)C[C@H](N)[C@H]1NC(C)=O [Oseltamivir carboxylate, reference compound] | 0.8 | 0.6 | 0.8 | 0.4 | > 100 | 0.5 | 0.4 | 
4 | CC1SC2(CCCCC2)N(NC(=O)c2ccc(C(C)(C)C)cc2)C1=O (stereo not drawn) [Compound 2a, 4‐(tert‐Butyl)‐N‐(2‐methyl‐3‐oxo‐1‐thia‐4‐azaspiro[4.5]decan‐4‐yl)benzamide] | > 100 | > 100 | > 100 | > 100 | 92 | > 100 | > 100 | devoid of antiviral activity
5 | CC(N)C12CC3CC(CC(C3)C1)C2 (stereo not drawn) [Rimantadine, reference compound] | > 200 | > 200 | 0.7 | 0.8 | > 200 | 8 | 8.7 | 
6 | CCC1CCC2(CC1)SC(C)C(=O)N2NC(=O)c1ccc(C(C)(C)C)cc1 (stereo not drawn) [Compound 2d, 4‐(tert‐Butyl)‐N‐(8‐ethyl‐2‐methyl‐3‐oxo‐1‐thia‐4‐azaspiro[4.5]decan‐4‐yl)benzamide] | > 100 | > 100 | > 100 | > 100 | 13 | > 100 | > 100 | 
7 | CCCC1CCC2(CC1)SCC(=O)N2NC(=O)c1ccc(C(C)(C)C)cc1 (stereo not drawn) [Compound 1e, 4‐(tert‐Butyl)‐N‐(3‐oxo‐8‐propyl‐1‐thia‐4‐azaspiro[4.5]decan‐4‐yl)benzamide] | > 100 | > 100 | > 100 | > 100 | > 100 | > 100 | > 100 | 
8 | CC(C)(C)c1ccc(C(=O)NN2C(=O)CSC23CCCCC3)cc1 [Compound 1a, 4‐(tert‐Butyl)‐N‐(3‐oxo‐1‐thia‐4‐azaspiro[4.5]decan‐4‐yl)benzamide] | > 100 | > 100 | > 100 | > 100 | > 100 | > 100 | > 100 | 
9 | CC1CCC2(CC1)SCC(=O)N2NC(=O)c1ccc(C(C)(C)C)cc1 (stereo not drawn) [Compound 1c, 4‐(tert‐Butyl)‐N‐(8‐methyl‐3‐oxo‐1‐thia‐4‐azaspiro[4.5]decan‐4‐yl)benzamide] | > 100 | > 100 | > 100 | > 100 | > 100 | > 100 | > 100 | inactive; also recorded: lacks anti‐A/H3N2 activity
10 | CC1CCCC2(C1)SCC(=O)N2NC(=O)c1ccc(C(C)(C)C)cc1 (stereo not drawn) [Compound 1b, 4‐(tert‐Butyl)‐N‐(7‐methyl‐3‐oxo‐1‐thia‐4‐azaspiro[4.5]decan‐4‐yl)benzamide] | > 100 | > 100 | > 100 | > 100 | 11 | > 100 | > 100 | 
11 | CCC1CCC2(CC1)SCC(=O)N2NC(=O)c1ccc(C(C)(C)C)cc1 (stereo not drawn) [Compound 1d, 4‐(tert‐Butyl)‐N‐(8‐ethyl‐3‐oxo‐1‐thia‐4‐azaspiro[4.5]decan‐4‐yl)benzamide] | > 100 | > 100 | > 100 | > 100 | > 100 | > 100 | > 100 | 
12 | CCCC1CCC2(CC1)SC(C)C(=O)N2NC(=O)c1ccc(C(C)(C)C)cc1 (stereo not drawn) [Compound 2e, 4‐(tert‐Butyl)‐N‐(2‐methyl‐3‐oxo‐8‐propyl‐1‐thia‐4‐azaspiro[4.5]decan‐4‐yl)benzamide] | > 100 | > 100 | > 100 | > 100 | 14 | > 100 | > 100 | 
13 | NC(=O)c1ncn([C@@H]2O[C@H](CO)[C@@H](O)[C@H]2O)n1 [Ribavirin, reference compound] | 9 | 5.3 | 6.8 | 1.3 | > 100 | 8.9 | 7.1 | 
14 | CC1CCC2(CC1)SC(C)C(=O)N2NC(=O)c1ccc(C(C)(C)C)cc1 (stereo not drawn) [Compound 2c, 4‐(tert‐Butyl)‐N‐(2,8‐dimethyl‐3‐oxo‐1‐thia‐4‐azaspiro[4.5]decan‐4‐yl)benzamide] | > 100 | > 100 | 2.4 ± 0.8 | 1.3 ± 0.3 | 39 ± 25 | > 100 | > 100 | 
15 | CC1CCCC2(C1)SC(C)C(=O)N2NC(=O)c1ccc(C(C)(C)C)cc1 (stereo not drawn) [Compound 2b, 4‐(tert‐Butyl)‐N‐(2,7‐dimethyl‐3‐oxo‐1‐thia‐4‐azaspiro[4.5]decan‐4‐yl)benzamide] | > 100 | > 100 | > 100 | > 100 | 78 | > 100 | > 100 | devoid of antiviral activity
